The text below walks through data of publication PMC10786919, “Design-rules for stapled peptides with in vivo activity and their application to Mdm2/X antagonists” (Nature Communications, 2024).

≈ marks a conversion by molar mass, not a printed value. Read-outs that look alike come from different tables or passages of the source. Positions of bridges follow the written chain, without caps; N, C: chain ends. Non-standard residues stand in square brackets, D forms with d. Residues, ends and D or L forms follow the SMILES beside them. Phe(4-SO3H) = N[C@@H](Cc1ccc(S(=O)(=O)O)cc1)C(=O)O; Lys(N3) = [N-]=[N+]=NCCCC[C@H](N)C(=O)O; R8 = C=CCCCCCC[C@@](C)(N)C(=O)O; Cba = N[C@@H](CC1CCC1)C(=O)O; S5 = C=CCCC[C@](C)(N)C(=O)O; βAla = NCCC(=O)O

The nature of data set [1]: Lactate dehydrogenase (LDH) release assay. Type of data set: cell-based. The essentials: (§1)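 Read-out was lactate dehydrogenase release, reflecting loss of membrane integrity, in reporter-engineered HCT116 cells (p53-responsive β-lactamase) seeded at 8000 cells per well. Final DMSO was 0.5%, and reported values are geometric means from three or more biological repeats.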

The subject of another data set is HCT116 cells. The data set is described as follows: Lactate dehydrogenase (LDH) release assay. Type of data set: cell-based. The essentials:
as §1

Data set [2] in a line: Nanoclick permeability assay. From the text: Further, there have been several literature reports[18]–[20] that highlight that the combination of hydrophobic character and positive charge can result in mast cell degranulation (MCD), a potentially fatal condition[18]–[20]. […] The NanoClick assay[22] determines permeability of azide-labeled peptides by combining intracellular copper-free click chemistry with NanoBRET technology. Specifically, if an azido-peptide achieves cytosolic exposure, it will react with a cyclooctyne-decorated Halotag construct that is fused with nanoluciferase. This reaction blocks the click labelling of a subsequently added azido-labeled acceptor dye, thus decreasing the NanoBRET signal in a manner that is target-binding agnostic.
This assay was previously described in detail. The assay was performed in 384-well white assay plates (PerkinElmer CUSG03874) using assay-ready frozen cells that had been transiently transfected with the NanoLuc-HaloTag vector that were thawed at plated in complete media at a density of 6000 cells/ well and incubated at 37 °C 5% CO2 overnight. DIBAC-CA was diluted in assay buffer (OptiMem without phenol red + 1% FBS) and added to cells at a final concentration of 3 μM and incubated at 37 °C 5% CO2 for 1 h. Cells were subsequently centrifuged using a BlueWasher instrument (Blue Cat Bio) to remove the DIBAC-CA solution and washed two times with HBSS (Ca2 + , Mg2 + ). A volume of 30 μL of assay buffer was added back to cell plates. Peptides were serially diluted 4-fold in DMSO with a Hamilton Star apparatus and then delivered into assay plates with an acoustic liquid handler Labcyte ECHO (300 nl, 1% DMSO in-well concentration). After incubating cells with peptide for the desired time (4 or 18 h), the HaloTag ligand, NanoBret618-azide, was added to each well at a final concentration of 10 μM. […] Following addition of NanoBRET Nano-Glo Substrate, donor emission (450 nm) and acceptor emission (610 nm) were measured using an Envision instrument (PerkinElmer).

A short description of data set [3]: Solubility assay (kinetic solubility, PBS pH 7). Type of data set: physicochemical. Particulars: pH 7, aqueous buffer, kinetic from dmso stock, pH 7, PBS; read-out: Solubility. An outline of the steps:
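Values derive from peak-area ratios of sample versus a 100 µM standard, scaled by that standard's concentration.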

Data set [4] is described as follows: Experimental LogD (partition coefficient). As to conditions: not stated, Partition Coeff LogD.
Setting [5] is: 0% FBS 4Hr, read-out: LDH: Cytotoxicity assay EC50.
The mark [6] stands for this setting: 10% FBS 16Hr, read-out: LDH: Cytotoxicity assay EC50.
The mark [7] stands for this setting: Nanoclick permeability assay EC50.
Setting [8] is: 0% FBS 4Hr, read-out: LDH: Cytotoxicity assay: EC50.

In general, EC50 refers to the concentration at which the effect is half-maximal. The term logD denotes lipophilicity at a set pH, counting ionised and neutral species. High values mean a more lipophilic compound, low ones a more hydrophilic compound. With `CC(=O)N[C@@H](CCCCN=[N+]=[N-])C(=O)NCCC(=O)N[C@@H](CC(C)C)C(=O)N[C@H](C(=O)N[C@@H](Cc1ccccc1)C(=O)N[C@]1(C)CCCCCCC=CCCC[C@@](C)(C(=O)N[C@@H](C)C(=O)N[C@@H](CCC(N)=O)C(=O)N[C@@H](C)C(=O)N[C@@H](C)C(=O)N[C@@H](C)C(=O)N[C@H](C)C(N)=O)NC(=O)[C@H](CC2CCC2)NC(=O)[C@H](CCC(N)=O)NC(=O)[C@H](C)NC(=O)[C@H](Cc2c[nH]c3ccccc23)NC(=O)[C@H](Cc2ccc(O)cc2)NC(=O)[C@H](CCC(=O)O)NC1=O)[C@@H](C)O` [MP-966] (Ac-[Lys(N3)][βAla]LTF[R8]EYWAQ[Cba][S5]AQAAA[dA]-NH2; staple 6-13), the EC50 in data set [1] (setting [5]) and in data set [1] (setting [6]) was greater than 50700 nM throughout. The “LDH: Cytotoxicity assay % Effect” value in the data set on HCT116 cells (0% FBS 4Hr) was -1.602%; in the data set with HCT116 cells (10% FBS 16Hr) it was 12.04%. Besides, the cell entry EC50 in data set [2] turned out to be 6100 nM. In addition, the solubility kinetic in data set [3] worked out at 160 µM (≈ 356 µg/mL). In data set [4], this compound registered a logD of 3.07.

Compound `CC(C)C[C@@H]1NC(=O)[C@H](C)NC(=O)[C@H](Cc2c[nH]c3ccccc23)NC(=O)[C@H](Cc2ccc(O)cc2)NC(=O)[C@H](CCC(=O)O)NC(=O)[C@](C)(NC(=O)[C@H](Cc2ccccc2)NC(=O)[C@H](CO)NC(=O)[C@@H](NC(=O)[C@H](CO)NC(=O)CNC(=O)[C@H](CO)NC(=O)[C@H](CCCCN=[N+]=[N-])NC(=O)[C@H](CCC(=O)O)NC(=O)[C@@H](N)CCC(=O)O)[C@@H](C)O)CCCCCCC=CCCC[C@@](C)(C(N)=O)NC(=O)[C@H](CC(C)C)NC1=O` [MP-0181] (H-EE[Lys(N3)]SGSTSF[R8]EYWALL[S5]-NH2; staple 10-17) had an EC50 in data set [1] (LDH: Cytotoxicity assay: EC50) greater than 50600 nM. Further, the “LDH: Cytotoxicity assay: % Effect” value in the data set on HCT116 cells was determined as 9.12%. The cell entry EC50 in data set [2] (setting [7]) was 2070 nM. Besides, the solubility kinetic in data set [3] was 106 µM (≈ 219 µg/mL). Moreover, in data set [4], the logD stood at 2.05.

Regarding `CC(=O)N[C@@H](CCCCN=[N+]=[N-])C(=O)NCCC(=O)N[C@@H](CC(C)C)C(=O)N[C@H](C(=O)N[C@@H](Cc1ccccc1)C(=O)N[C@]1(C)CCCCCCC=CCCC[C@@](C)(C(=O)N[C@@H](C)C(=O)N[C@@H](C)C(=O)N[C@@H](C)C(=O)N[C@@H](CCC(=O)O)C(=O)N[C@@H](C)C(=O)N[C@H](C)C(N)=O)NC(=O)[C@H](CC2CCC2)NC(=O)[C@H](CCC(N)=O)NC(=O)[C@H](C)NC(=O)[C@H](Cc2c[nH]c3ccccc23)NC(=O)[C@H](Cc2ccc(O)cc2)NC(=O)[C@H](CCC(=O)O)NC1=O)[C@@H](C)O` [MP-835] (Ac-[Lys(N3)][βAla]LTF[R8]EYWAQ[Cba][S5]AAAEA[dA]-NH2; staple 6-13), the EC50 in data set [1] (setting [5]) and in data set [1] (setting [6]) was greater than 50700 nM each time. The entries for the “LDH: Cytotoxicity assay % Effect” value in the data set on HCT116 cells (0% FBS 4Hr) and in the data set on HCT116 cells (10% FBS 16Hr) were 3.786% and 22.41%, respectively. Further, the cell entry EC50 in data set [2] is 537 nM. Besides, the solubility kinetic in data set [3] came to 162 µM (≈ 361 µg/mL). In data set [4], the logD is 2.16.

In turn, `CC(=O)N[C@@H](CCC(=O)O)C(=O)N[C@@H](CCC(=O)O)C(=O)N[C@@H](CCC(=O)O)C(=O)N[C@@H](CCCCN=[N+]=[N-])C(=O)NCCC(=O)N[C@@H](CC(C)C)C(=O)N[C@H](C(=O)N[C@@H](Cc1ccccc1)C(=O)N[C@]1(C)CCCCCCC=CCCC[C@@](C)(C(=O)N[C@@H](CCC(=O)O)C(=O)N[C@@H](CCC(=O)O)C(=O)N[C@@H](CCC(=O)O)C(N)=O)NC(=O)[C@H](CC2CCC2)NC(=O)[C@H](CCC(N)=O)NC(=O)[C@H](C)NC(=O)[C@H](Cc2c[nH]c3ccccc23)NC(=O)[C@H](Cc2ccc(O)cc2)NC(=O)[C@H](CCC(=O)O)NC1=O)[C@@H](C)O` [MP-764] (Ac-EEE[Lys(N3)][βAla]LTF[R8]EYWAQ[Cba][S5]EEE-NH2; staple 9-16) registered an EC50 in data set [1] (LDH: Cytotoxicity assay: EC50) greater than 50600 nM. In addition, the “LDH: Cytotoxicity assay: % Effect” value with HCT116 cells is recorded as -1.252%. The cell entry EC50 in data set [2] (setting [7]) amounted to 2670 nM. The solubility kinetic in data set [3] turned out to be 22 µM (≈ 55.3 µg/mL). Also, the logD in data set [4] came to 1.26.

With `CC(=O)N[C@@H](CCCCN=[N+]=[N-])C(=O)NCCC(=O)N[C@@H](CC(C)C)C(=O)N[C@H](C(=O)N[C@@H](Cc1ccccc1)C(=O)N[C@]1(C)CCCCCCC=CCCC[C@@](C)(C(=O)N[C@@H](CCC(=O)O)C(=O)N[C@@H](CC(N)=O)C(=O)N[C@@H](Cc2ccccc2)C(N)=O)NC(=O)[C@H](CC2CCC2)NC(=O)[C@H](CCC(N)=O)NC(=O)[C@H](C)NC(=O)[C@H](Cc2c[nH]c3ccccc23)NC(=O)[C@H](Cc2ccc(O)cc2)NC(=O)[C@H](CCC(=O)O)NC1=O)[C@@H](C)O` [MP-328] (Ac-[Lys(N3)][βAla]LTF[R8]EYWAQ[Cba][S5]ENF-NH2; staple 6-13), in data set [1] (setting [8]), the EC50 is greater than 50600 nM. Also, the “LDH: Cytotoxicity assay: % Effect” value in the data set with HCT116 cells (0% FBS 4Hr) is -1.88%. The cell entry EC50 in data set [2] was 66.3 nM. Also, the solubility kinetic in data set [3] stood at 108 µM (≈ 230 µg/mL). This compound yielded a logD in data set [4] of 2.65.

In the case of `CC(=O)N[C@@H](CCCCN=[N+]=[N-])C(=O)NCCC(=O)N[C@@H](Cc1ccc(S(=O)(=O)O)cc1)C(=O)N[C@H](C(=O)N[C@@H](Cc1ccccc1)C(=O)N[C@]1(C)CCCCCCC=CCCC[C@@](C)(C(=O)N[C@@H](CO)C(=O)N[C@@H](C)C(=O)N[C@@H](C)C(N)=O)NC(=O)[C@H](CC2CCC2)NC(=O)[C@H](CCC(N)=O)NC(=O)[C@H](C)NC(=O)[C@H](Cc2c[nH]c3ccccc23)NC(=O)[C@H](Cc2ccc(O)cc2)NC(=O)[C@H](CCC(=O)O)NC1=O)[C@@H](C)O` [MP-7668] (Ac-[Lys(N3)][βAla][Phe(4-SO3H)]TF[R8]EYWAQ[Cba][S5]SAA-NH2; staple 6-13), in data set [1] (LDH: Cytotoxicity assay: EC50), the EC50 was greater than 50600 nM. Moreover, the “LDH: Cytotoxicity assay: % Effect” value with HCT116 cells is 2.173%. In addition, the cell entry EC50 in data set [2] (setting [7]) came to 406 nM. For the same compound, in data set [3], the solubility kinetic turned out to be 28 µM (≈ 58.4 µg/mL). For the same compound, the logD in data set [4] was determined as 2.31.

Consider `CC(=O)N[C@@H](CCCCN=[N+]=[N-])C(=O)NCCC(=O)N[C@@H](CC(C)C)C(=O)N[C@H](C(=O)N[C@@H](Cc1ccccc1)C(=O)N[C@]1(C)CCCCCCC=CCCC[C@@](C)(C(=O)NCC(=O)NCC(=O)NCC(=O)NCC(=O)NCC(=O)NCC(N)=O)NC(=O)[C@H](CC2CCC2)NC(=O)[C@H](CCC(N)=O)NC(=O)[C@H](C)NC(=O)[C@H](Cc2c[nH]c3ccccc23)NC(=O)[C@H](Cc2ccc(O)cc2)NC(=O)[C@H](CCC(=O)O)NC1=O)[C@@H](C)O` [MP-289] (Ac-[Lys(N3)][βAla]LTF[R8]EYWAQ[Cba][S5]GGGGGG-NH2; staple 6-13), for which the EC50 was greater than 50700 nM in data set [1] (setting [8]) and greater than 50700 nM in data set [1] (10% FBS 16Hr, read-out: LDH: Cytotoxicity assay: EC50). In addition, the “LDH: Cytotoxicity assay: % Effect” value in the data set with HCT116 cells (0% FBS 4Hr) is listed as -4.216%; with HCT116 cells (10% FBS 16Hr), 3.579%. The cell entry EC50 in data set [2] was 615 nM. For the same compound, the solubility kinetic in data set [3] was 142 µM (≈ 296 µg/mL). In data set [4], this compound displayed a logD of 2.58.

As for `CC(=O)N[C@@H](CCCCN=[N+]=[N-])C(=O)NCCC(=O)N[C@@H](CC(=O)O)C(=O)N[C@H](C(=O)N[C@@H](Cc1ccccc1)C(=O)N[C@]1(C)CCCCCCC=CCCC[C@@](C)(C(=O)N[C@@H](CO)C(=O)N[C@@H](C)C(=O)N[C@@H](C)C(N)=O)NC(=O)[C@H](CC2CCC2)NC(=O)[C@H](CCC(N)=O)NC(=O)[C@H](CC(=O)O)NC(=O)[C@H](Cc2c[nH]c3ccccc23)NC(=O)[C@H](Cc2ccc(O)cc2)NC(=O)[C@H](CC(=O)O)NC1=O)[C@@H](C)O` [MP-495, azide-ATSP-7041 (L1D, E5D, A8D)] (Ac-[Lys(N3)][βAla]DTF[R8]DYWDQ[Cba][S5]SAA-NH2; staple 6-13), the EC50 in data set [1] (setting [8]) is greater than 50600 nM. Also, the “LDH: Cytotoxicity assay: % Effect” value in the data set on HCT116 cells (0% FBS 4Hr) was found to be 1.328%. Also, in data set [2], the cell entry EC50 was found to be 327 nM. Besides, the solubility kinetic in data set [3] was determined as 78.7 µM (≈ 158 µg/mL). Moreover, the logD in data set [4] stood at 1.93.
